Where a name gives a salt, the structure may show the parent alone. Read-outs that look alike come from different tables or passages of the source.
Experiments:
[1] = test system: CHO cells producing an anti-IL8 IgG monoclonal antibody (ATCC CRL-12445); test: Reduction of fucosylation of anti-IL8 mAb produced by CHO cells, LC-MS analysis; assay type: cell-based
Text: Briefly, Epicatechin Monogallate (ECG), Epicatechin-3-Monogallate (ECGC) and Aurin Tricarboxylic Acid (ATA) were included in the cell culture media and added to CHO cells producing an anti-IL8 IgG monoclonal antibody (mAb) obtained from [NT] CRL-12445), which is also described in U.S. Pat. No. 6,025,158, which is hereby incorporated by reference in its entirety. After a specified period of time the cells were harvested and the anti-IL8 mAb purified by standard methods. Purified anit-IL8 mAbs were then reduced by the addition of dithiothreitol and subjected to LC-MS analysis to determine the level of fucosylation. The decrease in the level of anti-IL8 fucosylation are depicted in FIG. 20 AND FIG. 21.

[2] = target: T1, fucosyltransferase (FUT-8) (Homo sapiens, UniProt Q9BYC5); test: Inhibition of fucosyltransferase (FUT-8) activity, detection of fucosylation of the substrate protein; assay type: biochemical; conditions: for inhibition at 10 µM: read-out: Primary Screen (10 μM), inhibition value
T1 sequence (Q9BYC5 1-575): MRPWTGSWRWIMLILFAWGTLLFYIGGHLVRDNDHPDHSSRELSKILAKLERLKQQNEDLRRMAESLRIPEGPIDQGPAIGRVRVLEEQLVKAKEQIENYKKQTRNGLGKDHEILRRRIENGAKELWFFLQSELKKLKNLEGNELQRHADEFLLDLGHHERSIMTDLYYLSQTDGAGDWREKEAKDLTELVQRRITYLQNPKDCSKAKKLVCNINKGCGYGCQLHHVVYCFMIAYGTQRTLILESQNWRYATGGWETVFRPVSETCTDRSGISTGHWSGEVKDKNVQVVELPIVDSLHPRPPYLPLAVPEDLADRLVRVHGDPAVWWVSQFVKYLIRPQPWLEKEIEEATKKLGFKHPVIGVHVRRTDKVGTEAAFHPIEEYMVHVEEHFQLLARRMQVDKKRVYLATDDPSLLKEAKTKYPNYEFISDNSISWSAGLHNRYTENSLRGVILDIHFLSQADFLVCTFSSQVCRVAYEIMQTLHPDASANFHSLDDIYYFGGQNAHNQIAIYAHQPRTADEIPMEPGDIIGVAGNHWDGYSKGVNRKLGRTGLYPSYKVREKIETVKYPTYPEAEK
Procedure: Briefly, a compound was combined with fucosyltransferase (FUT-8) and appropriate substrates and incubated for 1 hour. The reaction was terminated, and a detection reagent mixture was added to detect the amount of fucosylation of the substrate protein.

[3] = 10 μM compound, incubated for 1 hour
[4] = incubated for 1 hour, read-out: IC50 Value

Row | Molecule | inhibition at 10 µM [2, 3] | IC50 [2, 4] | further results
1 | O=C(O[C@@H]1Cc2c(O)cc(O)cc2O[C@@H]1c1cc(O)c(O)c(O)c1)c1cc(O)c(O)c(O)c1 | 39% | > 10 µM | reduction in fucosylation ([1]; 10 μM in cell culture media): 6%
2 | O=C1C=C2CC3(O)COc4c(ccc(O)c4O)C3=C2C=C1O (centres unmarked) | 82% | < 10 µM | –
3 | C[n+]1c2cc(N)ccc2cc2ccc(N)cc21 [Acriflavinium] | 47% | > 10 µM | –
4 | O=C1c2c(O)cccc2Cc2cccc(O)c21 [Anthralin, reference compound] | 28% | > 10 µM | –
5 | O=C(O)C1=CC(=C(c2ccc(O)c(C(=O)O)c2)c2ccc(O)c(C(=O)O)c2)C=CC1=O [Aurin Tricarboxylic Acid] | 34% | > 10 µM | change of fucosylation level ([1]; either concentration tested (data not shown)): did not alter the fucosylation level
6 | O=c1cc(-c2ccccc2)oc2cc(O)c(O)c(O)c12 [Baicalein] | 29% | – | –
7 | O=c1cc(-c2ccccc2)oc2cc(O)cc(O)c12 [Chrysin] | 30% | > 10 µM | –
8 | N.N.[Cl][Pt][Cl] [Cisplatin, reference compound] | – | > 10 µM | Primary Screen (10 μM), inhibition value [2, 3]: 60%
9 | COc1ccc(-c2cc(=O)c3c(O)cc(O)cc3o2)cc1O [Diometin] | 35% | – | –
10 | O=C(O[C@@H]1Cc2c(O)cc(O)cc2O[C@@H]1c1ccc(O)c(O)c1)c1cc(O)c(O)c(O)c1 [Epicatechin Monogallate] | 25% | > 10 µM | reduction in fucosylation ([1]; 10-fold lower concentration than 100 μM): 13%; core fucosylated species, with concomitant rise in the afucosylated species ([1]; dose dependence): dose dependent decrease; reduction in fucosylation ([1]; maximum concentration (100 μM) in cell culture media): 25%
11 | CCOc1ccc2nc3cc(N)ccc3c(N)c2c1 [Ethcridine Lactate, Etheridine Lactate] | 26% | > 10 µM | –
12 | Cc1cc2c(C(C)C)c(O)c(O)c(C=O)c2c(O)c1-c1c(C)cc2c(C(C)C)c(O)c(O)c(C=O)c2c1O [Gossypol] | – | – | IC50 [2]: > 10 µM; inhibition at 10 µM [2]: 26%
13 | Oc1c(Cl)cc(Cl)c(Cl)c1Cc1c(O)c(Cl)cc(Cl)c1Cl [Hexachlorophene, reference compound] | – | – | IC50 [2]: > 10 µM; inhibition at 10 µM [2]: 40%
14 | CCN(CC)CCNc1ccc(CO)c2sc3ccccc3c(=O)c12 [Hycanthone, reference compound] | 27% | > 10 µM | –
15 | C=C1c2cccc(O)c2C(=O)C2=C(O)[C@]3(O)C(=O)C(C(N)=O)=C(O)[C@@H](N(C)C)[C@@H]3[C@@H](O)[C@H]12 [Methacycline, reference compound] | – | < 10 µM | Primary Screen (10 μM), inhibition value [2, 3]: 82%
16 | O=C1c2c(O)ccc(O)c2C(=O)c2c(NCCNCCO)ccc(NCCNCCO)c21 [Mitoxanthrone Hydrocloride, Mitoxanthrone Hydrochloride, reference compound] | 49% | > 10 µM | –
17 | O=c1cc(-c2ccccc2)oc2cccc(O)c12 [Primuletin] | 30% | > 10 µM | –
18 | O=c1c(O)cccc2cc(O)c(O)c(O)c12 [Purpurogallin] | 30% | > 10 µM | –
19 | Cc1ccc(C(=O)Nc2ccc(S(=O)(=O)O)c3cc(S(=O)(=O)O)cc(S(=O)(=O)O)c23)cc1NC(=O)c1cccc(NC(=O)Nc2cccc(C(=O)Nc3cc(C(=O)Nc4ccc(S(=O)(=O)O)c5cc(S(=O)(=O)O)cc(S(=O)(=O)O)c45)ccc3C)c2)c1 [Suramin, reference compound] | 70% | < 10 µM | –
20 | O=C(OC[C@H]1O[C@@H](OC(=O)c2cc(O)c(O)c(OC(=O)c3cc(O)c(O)c(O)c3)c2)[C@H](OC(=O)c2cc(O)c(O)c(OC(=O)c3cc(O)c(O)c(O)c3)c2)[C@@H](OC(=O)c2cc(O)c(O)c(OC(=O)c3cc(O)c(O)c(O)c3)c2)[C@@H]1OC(=O)c1cc(O)c(O)c(OC(=O)c2cc(O)c(O)c(O)c2)c1)c1cc(O)c(O)c(OC(=O)c2cc(O)c(O)c(O)c2)c1 [Tannic Acid] | 93% | < 10 µM | –
21 | O=C(O[C@@H]1Cc2c(O)cc(O)cc2O[C@@H]1c1cc(O)c(=O)c2c(O)c(O)cc([C@H]3Oc4cc(O)cc(O)c4C[C@H]3O)c2c1)c1cc(O)c(O)c(O)c1 [Theaflavin Monogallate] | 88% | < 10 µM | –
22 | Carboplatin [reference compound] | – | > 10 µM | Primary Screen (10 μM), inhibition value [2, 3]: 45%

Source: patent publication US20220151983A1, “COMPOUNDS FOR INHIBITING FUCOSYLATION AND METHODS FOR USING THE SAME” (SCORE PHARMA, INC., priority 2019, published 2022)
